Test results reported in patent US9725484B2, “Methods and compositions for the treatment of bone remodeling disorders” (THE REGENTS OF THE UNIVERSITY OF MICHIGAN, priority 2013, dated 2017).
Values belong to the molecule of their own block, whether it stands above or below them. Starred links: 1 amine or outer side, 2 acyl side, 3 side chain; linkers in the order of their positions; H or OH if unused. Positions of bridges follow the written chain, without caps; N, C: chain ends. Non-standard residues stand in square brackets, D forms with d. Residues, ends and D or L forms follow the SMILES beside them. No end group written: not given here. CO = O=C([*:1])[*:2]; Nlys = NCCCCNCC(=O)O

Key:
[1] = tested on: CIA; conditions: in vivo; cited from earlier work
[2] = tested on: osteoclastogenesis in mouse bone marrow cell cultures; assay: In vitro OC differentiation assay, mouse bone marrow cell cultures; format: cell-based; conditions: FIG. 2E; for Inhibition of basal osteoclastogenesis: mouse bone marrow cell cultures; for Inhibition of SE-activated OC differentiation: mouse cells
Procedure: (§1) Surface plasmon resonance (SPR) and signal transduction assays were performed as previously described (Holoshitz et al., 2012; supra; Ling et al., 2010. PLoS ONE 5: e11703; Ling et al., 2012 Arthritis Rheum.). In vitro assays for OC differentiation, using primary bone marrow cells (BMCs) isolated from femurs and tibias, or PBMCs isolated from healthy blood donors were performed as previously described (Holoshitz et al., 2012; supra).

[3] = tested on: SE-activated NO signaling; assay: Signal transduction assay: inhibition of SE-activated NO signaling; format: cell-based
Procedure: as §1

[4] = molecular target: T1, recombinant CRT (Mus musculus, UniProt P14211); assay: Surface plasmon resonance (SPR) binding assay: binding to CRT and competitive inhibition of SE ligand 65-79*0401 binding; conditions: for Potency of competitive inhibition of SE ligand binding to CRT: result in words
T1 construct: made in house
T1 sequence (P14211 18-416): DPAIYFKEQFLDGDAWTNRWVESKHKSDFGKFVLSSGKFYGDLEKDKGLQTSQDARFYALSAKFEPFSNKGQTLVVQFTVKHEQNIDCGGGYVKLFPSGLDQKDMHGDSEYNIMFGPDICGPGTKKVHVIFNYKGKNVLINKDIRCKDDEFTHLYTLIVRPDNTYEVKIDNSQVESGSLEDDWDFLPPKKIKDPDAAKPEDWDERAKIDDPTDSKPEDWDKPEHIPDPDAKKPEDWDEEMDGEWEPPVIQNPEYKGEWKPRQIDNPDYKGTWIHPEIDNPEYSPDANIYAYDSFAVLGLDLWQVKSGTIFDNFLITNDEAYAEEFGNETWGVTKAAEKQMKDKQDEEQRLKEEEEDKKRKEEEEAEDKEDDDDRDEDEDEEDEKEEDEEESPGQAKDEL
Text: Ficoll-Paque™, 4,5-Diaminofluorescein Diacetate (DAF-2 DA), 5-(and -6)-chloromethyl-2′,7′ dichlorodihydrofluorescein (CM-H2DCFDA), macrophage colony-stimulating factor (M-CSF), RANKL, denatured chicken collagen type II (CII), and complete Freund's Adjuvant (CFA) were purchased from previously listed sources. All other commercial reagents were purchased from Sigma (St Louis, Mo.). Linear peptides were synthesized and purified (>90%) as previously described (Ling et al., 2006 supra; Ling et al., 2007 Arthritis Res Ther 9: R5; Ling et al., 2007 The Journal of Immunology 179: 6359-6367; De Almeida et al., supra). Peptidomimetics were prepared by backbone cyclization (Kotake et al., 1999 J. Clin. Invest. 103: 1345-1352) of a 5mer peptide carrying the sequence DKCLA (SEQ ID NO: 1). Recombinant mouse CRT was purified as described (Ling and Holoshitz. 2007 The Journal of Immunology 179: 6359-6367).
as §1

[5] = tested on: SE-activated OC differentiation in human cells (PBMCs); assay: In vitro OC differentiation assay, human PBMCs; format: cell-based; conditions: FIG. 2D
Procedure: Isolation of human peripheral blood mononuclear cells (PBMCs) and culture of M1 fibroblasts were previously described (Holoshitz et al., 2012, J. Immunol.). DBA/1 mice, 6 to 10 weeks old, were purchased from the Jackson Laboratory (Bar Harbor, Me.). Mice were maintained and housed at the University of Michigan-Unit for Laboratory Animal Medicine facility, and all experiments were performed in accordance with protocols approved by University of Michigan Committee on Use and Care of Animals.
as §1

[6] = tested on: CIA; assay: Collagen-induced arthritis (CIA) in DBA/1 mice; format: in vivo, mouse
Procedure: DBA/1 mice (7-10 week old) were immunization as described (Holoshitz, 2012, J. Immunol.) with chicken CII in CFA. In brief, 50 μl of an emulsion containing 100 μg of CII in 25 μl of 0.05 M acetic acid and 25 μl of CFA was injected intradermally at the base of the tail. Mice were injected once per week intraperitoneally with either 1 or 10 pg (HS4-4)c Trp at in 50 μl of PBS. Arthritis severity was determined as previously described (Holoshitz, 2012, J. Immunol.), using a visual scoring system on a 4-point scale for each paw: 0=no arthritis, 1=swelling and redness confined to digits, 2=minor swelling and redness spreading from the digits to the distal paw, and 3=major swelling and redness extending proximally from the paw.
Limbs were dissected and decalcified in 10% EDTA for 14 days at 4° C. After decalcification, the specimens were processed for paraffin embedding and serial sectioned. The histological sections were deparaffinized, rehydrated and stained with hematoxylin and eosin (H&E), or for tartrate-resistant acid phosphatase (TRAP) activity using a commercial kit (Kamiya Biomedical Company, Seattle, Wash.). To determine OC abundance, TRAP-positive multinucleated cells were counted. Data represent mean±SEM of the total number of OCs in front and rear paws+knees. Bone damage was evaluated by radiography and micro-computed tomography (micro-CT) as previously described (Holoshitz, 2012, J. Immunol.).

[7] = tested on: osteoclastogenesis; assay: In vitro osteoclastogenesis / OC differentiation, cells not given; format: cell-based
Procedure: as §1

[8] = tested on: rodent cells; assay: Literature: in vitro inhibition in rodent cells (Fridman et al.); format: cell-based
[9] = molecular target: T2, recombinant mouse CRT (calreticulin) (mouse, UniProt P14211 18-416, limits assumed); assay: SPR, peptide as analyte, recombinant CRT immobilized
T2 construct: also called recombinant CRT
T2 sequence (looked up): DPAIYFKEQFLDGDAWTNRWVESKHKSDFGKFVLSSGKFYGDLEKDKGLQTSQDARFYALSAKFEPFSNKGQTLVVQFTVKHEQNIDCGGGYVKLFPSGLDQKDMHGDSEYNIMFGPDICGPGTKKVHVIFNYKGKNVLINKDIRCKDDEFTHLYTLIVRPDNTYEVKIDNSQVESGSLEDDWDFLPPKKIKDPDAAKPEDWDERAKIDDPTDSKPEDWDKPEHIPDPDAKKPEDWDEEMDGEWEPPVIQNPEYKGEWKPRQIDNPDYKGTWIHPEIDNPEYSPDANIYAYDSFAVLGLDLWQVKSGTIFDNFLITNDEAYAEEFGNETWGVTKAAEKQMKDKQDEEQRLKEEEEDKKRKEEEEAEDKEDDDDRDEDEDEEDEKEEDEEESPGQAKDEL

Molecule: CN1CCN(c2cccc(Nc3nc4c(-c5ccc(S(C)(=O)=O)cc5)cccn4n3)c2)CC1 [CEP-33779]
Dose range with therapeutic efficacy in CIA [1]: mg/kg-range

IC50 [3]: 0.0016 nM | Potency of competitive inhibition of SE ligand binding to CRT [4]: low-pM
Molecule: C[C@H](NC(=O)CN1CCCCNC(=O)NCCCCN(C(=O)[C@@H](N)Cc2c[nH]c3ccccc23)CC(=O)N[C@@H](CC(=O)O)C(=O)N[C@@H](CCCCN)C(=O)N[C@@H](CS)C1=O)C(N)=O [HS(4-4)c Trp] (H-W[Nlys]DKC[Nlys]A-NH2; linker 2-6 via CO)
Inhibition of basal osteoclastogenesis [2]: sub-pM | Inhibition of SE-activated OC differentiation [2]: sub-pM | SEAL potency relative to the linear DKCLA peptide [3]: 1,000,000 times | Concentrations blocking the SE signaling effects ([3]; result in words): low-pM | Inhibition of SE-activated OC differentiation [5]: sub-pM | Dose range achieving disease amelioration effects ([6]; mouse, in vivo): ng/kg-range | In vivo potency relative to INCB028050, SB1518, CEP-33779 ([6]; mouse, in vivo): 1,000,000 fold | Arthritis incidence ([6]; weekly ip): lower incidence | Arthritis severity ([6]; weekly ip): significantly milder | Bone destruction, micro-CT imaging of joints ([6]; weekly ip): lesser extent of bone destruction | OC abundance, synovial tissue histology (TRAP) ([6]; weekly ip): lower OC abundance | Arthritis onset ([6]; weekly ip, low-picogram doses): delayed onset | Concentrations with inhibitory effect on OC differentiation ([7]; result in words): sub-to-low-pM

Molecule: CCS(=O)(=O)N1CC(CC#N)(n2cc(-c3ncnc4[nH]ccc34)cn2)C1 [INCB028050]
Dose range with therapeutic efficacy in CIA [1]: mg/kg-range | Potency lower than compound HS(4-4)c Trp [8]: ~1000 fold

Molecule: C1=C/COCc2cc(ccc2OCCN2CCCC2)Nc2nccc(n2)-c2cccc(c2)COC/1 [SB1518]
Dose range with therapeutic efficacy in CIA [1]: mg/kg-range

IC50 [3]: 35000 nM | Binding to CRT ([4]; peptide in the analyte, CRT immobilized on the biosensor chip): bound to CRT | Potency of competitive inhibition of SE ligand binding to CRT [4]: low-μM-range
Molecule: DKCLA [Linear DKCLA]
Block of NO induction by the SE ligand ([3]; result in words): completely blocked

IC50 [3]: 0.0018 nM
Molecule: HS(3-3)c Trp: backbone cyclic DKCLA (cDKCLA) peptidomimetic; cyclization linker m is 3 and n is 3 (bridge (positions not given here); not fully specified (bridges); also: backbone cyclized, linker m=3, n=3, 'Trp' in name unexplained)
Inhibition of basal osteoclastogenesis [2]: sub-pM | Inhibition of SE-activated OC differentiation [2]: sub-pM | Inhibition of SE-activated OC differentiation [5]: sub-pM

IC50 [3]: 4300 nM
Molecule: HS(3-4)c Trp (DKCLA; bridge (positions not given here); not fully specified (bridges); also: backbone cyclized, linker m=3, n=4, 'Trp' in name unexplained)
Arthritis incidence ([6]; weekly ip): does not inhibit | Arthritis severity ([6]; weekly ip): does not inhibit | Inhibition of osteoclastogenesis ([7]; FIG. 2F): does not inhibit

IC50 [3]: 560 nM
Molecule: HS(4-6)c Trp: backbone cyclic DKCLA (cDKCLA) peptidomimetic; cyclization linker m is 4 and n is 6 (bridge (positions not given here); not fully specified (bridges); also: backbone cyclized, linker m=4, n=6, 'Trp' in name unexplained)

IC50 [3]: 770 nM
Molecule: HS(6-2)c Trp: backbone cyclic DKCLA (cDKCLA) peptidomimetic; cyclization linker m is 6 and n is 2 (bridge (positions not given here); not fully specified (bridges); also: backbone cyclized, linker m=6, n=2, 'Trp' in name unexplained)

IC50 [3]: 6.3 nM
Molecule: HS(6-4)c Trp: backbone cyclic DKCLA (cDKCLA) peptidomimetic; cyclization linker m is 6 and n is 4 (bridge (positions not given here); not fully specified (bridges); also: backbone cyclized, linker m=6, n=4, 'Trp' in name unexplained)

binding result [9]: binds
B1: linear DKCLA (SEQ ID NO: 1) peptide (peptide)
peptide: DKCLA
notes: Synthetic linear 5mer; analyte in SPR
